Data reported in ChEMBL document CHEMBL2029294, “Evaluation of endo- and exo-aryl-substitutions and central scaffold modifications on diphenyl substituted alkanes as 5-lipoxygenase activating protein inhibitors” (Bioorg Med Chem Lett, 2012).

Target: T1, Arachidonate 5-lipoxygenase-activating protein (Homo sapiens, UniProt P20292)
T1 sequence (P20292 whole entry): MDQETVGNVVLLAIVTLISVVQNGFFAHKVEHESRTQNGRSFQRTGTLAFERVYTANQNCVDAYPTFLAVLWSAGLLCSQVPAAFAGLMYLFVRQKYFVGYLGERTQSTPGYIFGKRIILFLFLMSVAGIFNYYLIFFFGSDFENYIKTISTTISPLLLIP
Assay: Displacement of [125I]L-691,831 from 5-lipoxygenase-activating protein in human polymorphonuclear cells

SMILES | IC50 [nM]
COC(=O)c1ccc(OCc2ccc3ccccc3n2)cc1[C@]1(c2cc(F)cc(F)c2)C[C@H]2CC[C@H]1C2 (racemic) | 3.4
COC(=O)c1ccc(OCc2ccc3ccccc3n2)cc1[C@]1(c2cc(C)cc(C)c2)C[C@H]2CC[C@H]1C2 (racemic) | 3.5
COC(=O)c1ccc(OCc2ccc3ccccc3n2)cc1C(c1ccccc1)C1CCCCC1 (racemic) | 16
COC(=O)c1ccc(OCc2ccc3ccccc3n2)cc1C(c1ccccc1)C(C)(C)C (racemic) | 5.5
COC(=O)c1ccc(OCc2ccc3ccccc3n2)cc1C(CC(C)(C)C)c1ccccc1 (racemic) | 3
O=C(Nc1cccnc1)c1ccc(OCc2ccc3ccccc3n2)cc1[C@]1(c2ccccc2)C[C@H]2CC[C@H]1C2 (racemic) | 5.8
O=C(NC1CCCC1)c1ccc(OCc2ccc3ccccc3n2)cc1[C@]1(c2ccccc2)C[C@H]2CC[C@H]1C2 (racemic) | 48
O=C(c1ccc(OCc2ccc3ccccc3n2)cc1[C@]1(c2ccccc2)C[C@H]2CC[C@H]1C2)N1CCCC1 (racemic) | 7.1
O=c1[nH]nc(-c2ccc(OCc3ccc4ccccc4n3)cc2[C@]2(c3ccccc3)C[C@H]3CC[C@H]2C3)o1 (racemic) | 2.5
Cc1nc(-c2ccc(OCc3ccc4ccccc4n3)cc2[C@]2(c3ccccc3)C[C@H]3CC[C@H]2C3)no1 (racemic) | 1.6
c1ccc([C@@]2(c3cc(OCc4ccc5ccccc5n4)ccc3-c3nnn[nH]3)C[C@H]3CC[C@H]2C3)cc1 (racemic) | 2.9
Cn1nnc(-c2ccc(OCc3ccc4ccccc4n3)cc2[C@]2(c3ccccc3)C[C@H]3CC[C@H]2C3)n1 (racemic) | 2.8
CCn1nnc(-c2ccc(OCc3ccc4ccccc4n3)cc2[C@]2(c3ccccc3)C[C@H]3CC[C@H]2C3)n1 (racemic) | 2.4
CC(C)n1nnc(-c2ccc(OCc3ccc4ccccc4n3)cc2[C@]2(c3ccccc3)C[C@H]3CC[C@H]2C3)n1 (racemic) | 1.7
FC(F)n1nnc(-c2ccc(OCc3ccc4ccccc4n3)cc2[C@]2(c3ccccc3)C[C@H]3CC[C@H]2C3)n1 (racemic) | 2.4

The next lines start with the values.

IC50 [nM] | SMILES
6.3 | Cc1noc(-c2ccc(OCc3ccc4ccccc4n3)cc2[C@]2(c3ccccc3)C[C@H]3CC[C@H]2C3)n1 (racemic)
2.2 | Nc1nnc(-c2ccc(OCc3ccc4ccccc4n3)cc2[C@]2(c3ccccc3)C[C@H]3CC[C@H]2C3)o1 (racemic)
1.1 | S=c1[nH]nc(-c2ccc(OCc3ccc4ccccc4n3)cc2[C@]2(c3ccccc3)C[C@H]3CC[C@H]2C3)o1 (racemic)
5 | Cc1nnc(-c2ccc(OCc3ccc4ccccc4n3)cc2[C@]2(c3ccccc3)C[C@H]3CC[C@H]2C3)o1 (racemic)
2.9 | c1ccc([C@@]2(c3cc(OCc4ccc5ccccc5n4)ccc3-c3nnco3)C[C@H]3CC[C@H]2C3)cc1 (racemic)
5.4 | c1ccc([C@@]2(c3cc(OCc4ccc5ccccc5n4)ccc3-c3ncon3)C[C@H]3CC[C@H]2C3)cc1 (racemic)

Target: T1, Arachidonate 5-lipoxygenase-activating protein
Assay: Inhibition of 5-lipoxygenase-activating protein in human polymorphonuclear cells assessed as inhibition of calcium ionophore-induced LTB4 production in presence of human whole blood
Type: tissue-based

SMILES | IC50 [nM]
COC(=O)c1ccc(OCc2ccc3ccccc3n2)cc1[C@]1(c2cc(F)cc(F)c2)C[C@H]2CC[C@H]1C2 (racemic) | 1320
COC(=O)c1ccc(OCc2ccc3ccccc3n2)cc1[C@]1(c2cc(C)cc(C)c2)C[C@H]2CC[C@H]1C2 (racemic) | 2300
COC(=O)c1ccc(OCc2ccc3ccccc3n2)cc1C(c1ccccc1)C1CCCCC1 (racemic) | > 9000
COC(=O)c1ccc(OCc2ccc3ccccc3n2)cc1C(c1ccccc1)C(C)(C)C (racemic) | 670
COC(=O)c1ccc(OCc2ccc3ccccc3n2)cc1C(CC(C)(C)C)c1ccccc1 (racemic) | 2000
O=C(Nc1cccnc1)c1ccc(OCc2ccc3ccccc3n2)cc1[C@]1(c2ccccc2)C[C@H]2CC[C@H]1C2 (racemic) | 2160
O=C(NC1CCCC1)c1ccc(OCc2ccc3ccccc3n2)cc1[C@]1(c2ccccc2)C[C@H]2CC[C@H]1C2 (racemic) | 964
O=C(c1ccc(OCc2ccc3ccccc3n2)cc1[C@]1(c2ccccc2)C[C@H]2CC[C@H]1C2)N1CCCC1 (racemic) | 1730
O=c1[nH]nc(-c2ccc(OCc3ccc4ccccc4n3)cc2[C@]2(c3ccccc3)C[C@H]3CC[C@H]2C3)o1 (racemic) | 796
Cc1nc(-c2ccc(OCc3ccc4ccccc4n3)cc2[C@]2(c3ccccc3)C[C@H]3CC[C@H]2C3)no1 (racemic) | 189
c1ccc([C@@]2(c3cc(OCc4ccc5ccccc5n4)ccc3-c3nnn[nH]3)C[C@H]3CC[C@H]2C3)cc1 (racemic) | 5720
Cn1nnc(-c2ccc(OCc3ccc4ccccc4n3)cc2[C@]2(c3ccccc3)C[C@H]3CC[C@H]2C3)n1 (racemic) | 313
CCn1nnc(-c2ccc(OCc3ccc4ccccc4n3)cc2[C@]2(c3ccccc3)C[C@H]3CC[C@H]2C3)n1 (racemic) | 177
CC(C)n1nnc(-c2ccc(OCc3ccc4ccccc4n3)cc2[C@]2(c3ccccc3)C[C@H]3CC[C@H]2C3)n1 (racemic) | 149
FC(F)n1nnc(-c2ccc(OCc3ccc4ccccc4n3)cc2[C@]2(c3ccccc3)C[C@H]3CC[C@H]2C3)n1 (racemic) | 502

Other lines, results leading:

IC50 [nM] | SMILES
1020 | Cc1noc(-c2ccc(OCc3ccc4ccccc4n3)cc2[C@]2(c3ccccc3)C[C@H]3CC[C@H]2C3)n1 (racemic)
258 | Nc1nnc(-c2ccc(OCc3ccc4ccccc4n3)cc2[C@]2(c3ccccc3)C[C@H]3CC[C@H]2C3)o1 (racemic)
753 | S=c1[nH]nc(-c2ccc(OCc3ccc4ccccc4n3)cc2[C@]2(c3ccccc3)C[C@H]3CC[C@H]2C3)o1 (racemic)
456 | Cc1nnc(-c2ccc(OCc3ccc4ccccc4n3)cc2[C@]2(c3ccccc3)C[C@H]3CC[C@H]2C3)o1 (racemic)
376 | c1ccc([C@@]2(c3cc(OCc4ccc5ccccc5n4)ccc3-c3nnco3)C[C@H]3CC[C@H]2C3)cc1 (racemic)
721 | c1ccc([C@@]2(c3cc(OCc4ccc5ccccc5n4)ccc3-c3ncon3)C[C@H]3CC[C@H]2C3)cc1 (racemic)
